This passage reports IC50 results from patent US7855213B2 (AstraZeneca AB, priority 2006, dated 2010).

Structures are written as SMILES. Where a name gives a salt, the structure may show the parent alone.

T1 sequence (P56817 22-460): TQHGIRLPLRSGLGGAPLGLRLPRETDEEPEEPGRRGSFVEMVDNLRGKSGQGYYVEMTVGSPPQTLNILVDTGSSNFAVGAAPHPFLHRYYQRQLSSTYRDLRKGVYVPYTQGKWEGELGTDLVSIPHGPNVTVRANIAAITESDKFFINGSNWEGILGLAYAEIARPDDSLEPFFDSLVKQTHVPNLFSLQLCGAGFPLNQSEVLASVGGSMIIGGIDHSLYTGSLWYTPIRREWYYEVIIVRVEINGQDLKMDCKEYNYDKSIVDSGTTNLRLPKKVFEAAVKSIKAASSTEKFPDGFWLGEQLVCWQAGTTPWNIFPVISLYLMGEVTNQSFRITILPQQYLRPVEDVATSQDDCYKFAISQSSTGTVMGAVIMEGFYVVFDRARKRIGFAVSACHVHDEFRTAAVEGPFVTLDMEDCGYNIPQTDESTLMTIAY

This assay addresses T1, human β-Secretase (Homo sapiens, UniProt P56817).
T1 construct: The soluble part of the human β-Secretase (AA 1-AA 460) was cloned; made in house
The experiment in a line: TR-FRET assay. It is filed as biochemical. For orientation: In TR-FRET formats the signal depends on donor and acceptor labels being close together.
Broadly, the IC50 is the concentration that gives 50% inhibition. Low values mean greater potency, high ones weaker potency. `COc1cccc(-c2cccc(C3(c4ccncc4)N=C(N)c4ccccc43)c2)c1F` (centres unmarked) [Example 104, 1-(2′-Fluoro-3′-methoxybiphenyl-3-yl)-1-pyridin-4-yl-1H-isoindol-3-amine] yielded an IC50 of 59 nM.
For `NC(=O)c1ccccc1-c1cccc(C2(c3ccncc3)N=C(N)c3ccccc32)c1` (centres unmarked) [Example 64, 3′-(3-Amino-1-pyridin-4-yl-1H-isoindol-1-yl)biphenyl-2-carboxamide 0.25 acetate], the IC50 was over 3100 nM.
`NC1=NC(c2ccc(F)c(-c3cncc(F)c3)c2)(c2ccncc2F)c2ccccc21` (centres unmarked) [Example 75, 1-[4-Fluoro-3-(5-fluoropyridin-3-yl)phenyl]-1-(3-fluoropyridin-4-yl)-1H-isoindol-3-amine 1.5 acetate] displayed an IC50 of 280 nM.
Consider `COc1ccc(C2(c3cccc(-c4cncnc4)c3)N=C(N)c3ccccc32)cc1` (centres unmarked) [Example 13, 3-(4-Methoxy-phenyl)-3-(3-pyrimidin-5-yl-phenyl)-3H-isoindol-1-ylamine trifluoroacetate], for which inhibition was half-maximal at 106 nM (IC50).
`COc1ccc(C2(c3cccc(-c4cncc(OC)c4)c3)N=C(N)c3ccccc32)cc1` (centres unmarked) [Example 12, 3-(4-Methoxy-phenyl)-3-[3-(5-methoxy-pyridin-3-yl)-phenyl]-3H-isoindol-1-ylamine trifluoroacetate] displayed an IC50 of 68 nM.
Take `COc1ccc(C2(c3cccc(-c4ccsc4C=O)c3)N=C(N)c3ccccc32)cc1` (centres unmarked) [Example 48, 3-{3-[3-Amino-1-(4-methoxyphenyl)-1H-isoindol-1-yl]phenyl}thiophene-2-carbaldehyde 1.5 acetate]: 300 nM corresponded to half-maximal inhibition (IC50).
Regarding `NC1=NC(c2ccncc2)(c2cccc(-c3cncnc3)c2)c2ccccc21` (centres unmarked) [Example 45, 3-Pyridin-4-yl-3-(3-pyrimidin-5-yl-phenyl)-3H-isoindol-1-ylamine trifluoroacetate], it took 501 nM to reach half-maximal inhibition (IC50).
In the case of `CCc1cc(C2(c3cccc(-c4cccnc4F)c3)N=C(N)c3ccccc32)ccn1` (centres unmarked) [Example 112, 1-(2-Ethylpyridin-4-yl)-1-[3-(2-fluoropyridin-3-yl)phenyl]-1H-isoindol-3-amine], inhibition was half-maximal at 96 nM (IC50).
In turn, `NC1=NC(c2cccc(-c3cncnc3)c2)(c2ccnc(Cl)c2)c2ccccc21` (centres unmarked) [Example 122, 1-(2-Chloropyridin-4-yl)-1-(3-pyrimidin-5-ylphenyl)-1H-isoindol-3-amine] returned an IC50 of 160 nM.
As to `CCc1cc(C2(c3cccc(-c4cncnc4)c3)N=C(N)c3ccccc32)ccn1` (centres unmarked) [Example 111, 1-(2-Ethylpyridin-4-yl)-1-(3-pyrimidin-5-ylphenyl)-1H-isoindol-3-amine], half-maximal inhibition (IC50) required 95 nM.
As for `COc1ccc(C2(c3cccc(-c4cccnc4)c3)N=C(N)c3ccccc32)cc1C` (centres unmarked) [Example 22, 3-(4-Methoxy-3-methyl-phenyl)-3-(3-pyridin-3-yl-phenyl)-3H-isoindol-1-ylamine trifluoroacetate], the figure is 145 nM.
On to `COc1ccc(C2(c3cccc(-c4cc(OC)cc(OS(C)(=O)=O)c4)c3)N=C(N)c3ccccc32)cc1` (centres unmarked) [Example 14, Methanesulfonic acid 3′-[3-amino-1-(4-methoxy-phenyl)-1H-isoindol-1-yl]-5-methoxy-biphenyl-3-yl ester trifluoroacetate], for which the IC50 was 153 nM.
`NC1=NC(c2cccc(-c3cncnc3)c2)(c2ccc3c(c2)OCCO3)c2ccccc21` (centres unmarked) [Example 18, 3-(2,3-Dihydrobenzo[b][1,4]dioxin-6-yl)-3-(3-(pyrimidin-5-yl)phenyl)-3H-isoindol-1-amine trifluoroacetate] returned an IC50 of 593 nM. Against the preceding compound, the IC50 is about 3.9-fold higher.
As to `NC1=NC(c2ccc(C(F)(F)F)cc2)(c2cccc(-c3cccnc3F)c2)c2ccccc21` (centres unmarked) [Example 66, 1-[3-(2-Fluoropyridin-3-yl)phenyl]-1-[4-(trifluoromethyl)phenyl]-1H-isoindol-3-amine], the IC50 was 520 nM.
For `COc1ccc(C2(c3cccc(-c4cccc(OC)c4)c3)N=C(N)c3ccc(F)cc32)cc1` (centres unmarked) [Example 80, 6-Fluoro-1-(3′-methoxybiphenyl-3-yl)-1-(4-methoxyphenyl)-1H-isoindol-3-amine], it took 84 nM to reach half-maximal inhibition (IC50).
The compound `NC1=NC(c2cccc(-c3cncnc3)c2)(C2CC2)c2ccccc21` (centres unmarked) [Example 92, 1-Cyclopropyl-1-(3-pyrimidin-5-ylphenyl)-1H-isoindol-3-amine acetate] returned an IC50 of 270 nM.
Turning to `N#Cc1cncc(-c2cccc(C3(c4ccncc4F)N=C(N)c4ccccc43)c2)c1` (centres unmarked) [Example 102, 5-{3-[3-Amino-1-(3-fluoropyridin-4-yl)-1H-isoindol-1-yl]phenyl}nicotinonitrile], the IC50 is 310 nM.
For the compound `COc1cc(OS(C)(=O)=O)cc(-c2cccc(C3(c4ccc5c(c4)OCCO5)N=C(N)c4ccccc43)c2)c1` (centres unmarked) [Example 26, 5′-(3-Amino-1-(2,3-dihydrobenzo[b][1,4]dioxin-6-yl)-1H-isoindol-1-yl)-5-methoxybiphenyl-3-yl methanesulfonate trifluoroacetate], inhibition was half-maximal at 1280 nM (IC50).
In turn, `NC1=NC(c2ccc(OS(=O)(=O)C(F)(F)F)cc2)(c2ccc(F)c(-c3cncnc3)c2)c2ccccc21` (centres unmarked) [Example 136, 4-[3-Amino-1-(4-fluoro-3-pyrimidin-5-ylphenyl)-1H-isoindol-1-yl]phenyl trifluoromethanesulfonate] gave an IC50 of 457 nM.
As for `COc1ccc(C2(c3cccc(-c4cncc(OC)c4)c3)N=C(N)c3ccc(F)cc32)cc1` (centres unmarked) [Example 81, 6-Fluoro-1-(4-methoxyphenyl)-1-[3-(5-methoxypyridin-3-yl)phenyl]-1H-isoindol-3-amine], the figure is 26 nM; as for `COc1ccc(C2(c3ccc(OS(=O)(=O)C(F)(F)F)c(-c4cccc(OC)c4)c3)N=C(N)c3ccccc32)cc1` (centres unmarked) [Example 3, Trifluoro-methanesulfonic acid 5-[3-amino-1-(4-methoxy-phenyl)-1H-isoindol-1-yl]-3′-methoxy-biphenyl-2-yl ester trifluoroacetate], 12000 nM; as for `NC1=NC(c2cccc(OS(=O)(=O)c3c(F)cccc3F)c2)(c2cc(Cl)nc(Cl)c2)c2ccccc21` (centres unmarked) [Example 133, 3-[3-Amino-1-(2,6-dichloropyridin-4-yl)-1H-isoindol-1-yl]phenyl 2,6-difluorobenzenesulfonate], 3240 nM.
For `COc1cncc(-c2cccc(C3(c4ccc5c(c4)OCO5)N=C(N)c4ccccc43)c2)c1` (centres unmarked) [Example 32, 3-Benzo[1,3]dioxol-5-yl-3-[3-(5-methoxy-pyridin-3-yl)-phenyl]3H isoindol-1-ylamine trifluoroacetate], the IC50 worked out at 708 nM. Against the preceding compound, the IC50 is about 4.6-fold lower.
The same measure for `COc1ccc(C2(c3ccc(F)c(-c4cncnc4)c3)N=C(N)c3ccccc32)cc1C` (centres unmarked) [Example 127, 1-(4-Fluoro-3-pyrimidin-5-ylphenyl)-1-(4-methoxy-3-methylphenyl)-1H-isoindol-3-amine]: 33 nM; for `COc1cncc(-c2cccc(C3(c4ccc(OS(C)(=O)=O)cc4)N=C(N)c4ccccc43)c2)c1` (centres unmarked) [Example 39, Methanesulfonic acid 4-{3-amino-1-[3-(5-methoxy-pyridin-3-yl)-phenyl]-1H-isoindol-1-yl}-phenyl ester trifluoroacetate]: 350 nM.
As for `CC1(c2cccc(-c3cncnc3)c2)N=C(N)c2ccccc21` (centres unmarked) [Example 95, 1-Methyl-1-(3-pyrimidin-5-ylphenyl)-1H-isoindol-3-amine acetate], the IC50 was determined as 2010 nM. This IC50 is about 5.7-fold higher than that of the compound before.
